Eleven compounds from ChEMBL document CHEMBL1201862, “PubChem BioAssay data set” (2004) can be followed below.

Among the test systems are A498; A549; ACHN; EKVX; HCT-116; HOP-92; HT-29; MCF7; MDA-MB-231; MDA-N; NCI-H522; SK-MEL-28; SK-MEL-2; SK-OV-3; SN12C; SR; T47D; CCRF-CEM; SF-268; SF-295.
Common to all, as to experiment: NCI-60 cell line screen, 48 h

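In this assay, cells in 96-well plates receive the compound at five concentrations for 48 hours. Endpoints are linearly interpolated between the surrounding concentrations. GI50 marks 50% less growth.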 Activity calls are given as the source filed them. Rule as the data show it: active = GI50 up to about 1.1 µM and inactive = higher.

With `Cc1c2cnccc2c(C)c2c1c1ccccc1n2CCCN`, the GI50 with A498 is 0.871 µM (active); in the experiment with A549, 0.408 µM (active); with ACHN, 0.243 µM (active); in the experiment on EKVX it was 0.525 µM (active); in the experiment with HCT-116 it was 0.0929 µM (active); with HOP-92, 0.281 µM (active). Moreover, the GI50 in the experiment with HT-29 was 0.206 µM (active); with MCF7, 0.282 µM (active); in the experiment on MDA-MB-231 it was 0.171 µM (active); with MDA-N it was 0.226 µM (active); in the experiment with NCI-H522, 0.447 µM (active); in the experiment with SK-MEL-28, 0.857 µM (active). Further, the GI50 in the experiment on SK-MEL-2 is 0.721 µM (active); in the experiment on SK-OV-3, 0.74 µM (active); in the experiment on SN12C, 0.401 µM (active); in the experiment with SR, < 0.01 µM (active); with T47D, 0.526 µM (active).
For the compound `O=C1NC(=O)C2=C1CCC2O` (stereo not drawn), the GI50 with A498, in the experiment on A549, in the experiment with ACHN, in the experiment with CCRF-CEM, in the experiment on EKVX and in the experiment on HCT-116 was > 100 µM (inactive) each time. Moreover, the GI50 in the experiment with HOP-92, with HT-29, in the experiment with MCF7, in the experiment on MDA-MB-231, in the experiment on MDA-N and with SF-268 was > 100 µM (inactive) throughout. Further, the GI50 in the experiment on SF-295, with SK-MEL-28, in the experiment on SK-MEL-2, in the experiment on SK-OV-3, in the experiment on SN12C and with SR was > 100 µM (inactive) throughout. Besides, the GI50 with T47D was > 100 µM (inactive).
For the compound `CCN(CCO)CC1COc2ccccc2O1` (stereo not drawn), the GI50 in the experiment on A498, in the experiment on A549, in the experiment with ACHN, in the experiment with CCRF-CEM, in the experiment on EKVX and with HCT-116 was > 100 µM (inactive) in each case. The GI50 in the experiment with HOP-92, with HT-29, with MCF7, with MDA-MB-231, in the experiment with MDA-N and with NCI-H522 was > 100 µM (inactive) in each case. The GI50 in the experiment with SF-268, in the experiment with SF-295, in the experiment with SK-MEL-28, in the experiment on SK-OV-3, with SN12C and in the experiment with SR was > 100 µM (inactive) each time. Also, in the experiment with T47D, the GI50 is > 100 µM (inactive).
Regarding `C[NH+]1[C@@H](Cc2ccccc2)C(=O)O[B-]1(F)c1ccccc1` (stereo partly drawn), the GI50 with A498, with A549, with ACHN, in the experiment on CCRF-CEM, in the experiment on EKVX and in the experiment with HCT-116 was > 100 µM (inactive) each time. Also, the GI50 in the experiment on HOP-92, in the experiment with HT-29, in the experiment on MCF7, in the experiment on MDA-MB-231, in the experiment on MDA-N and in the experiment on SF-268 was > 100 µM (inactive) each time. For the same compound, the GI50 with SF-295, with SK-MEL-28, in the experiment with SK-OV-3, with SN12C, with SR and with T47D was > 100 µM (inactive) throughout.
Regarding `CC(=O)N1C(=O)c2cc3ccccc3cc21`, the GI50 in the experiment with A498 is 24.7 µM (inactive); in the experiment with A549 it was > 100 µM (inactive); in the experiment on ACHN, > 100 µM (inactive); in the experiment with CCRF-CEM, 78.2 µM (inactive); with EKVX, > 100 µM (inactive); with HCT-116, 61.4 µM (inactive). The GI50 in the experiment with HOP-92 was 62.7 µM (inactive); in the experiment on MCF7 it was 31.3 µM (inactive); with MDA-MB-231 it was > 100 µM (inactive); in the experiment on MDA-N it was > 100 µM (inactive); in the experiment on SF-268, > 100 µM (inactive); in the experiment with SK-MEL-28 it was > 100 µM (inactive). In addition, the GI50 in the experiment with SK-MEL-2, in the experiment with SK-OV-3, with SN12C, in the experiment with SR and with T47D was > 100 µM (inactive) in each case.
As to `CCOC(=O)[C@@H]1ON2O[C@@H](OC3CCCCC3c3ccccc3)C[C@H]3OC(=O)[C@@H]1C32` (stereo partly drawn), the GI50 in the experiment with A498 is > 100 µM (inactive); with A549, 80.7 µM (inactive); in the experiment on ACHN it was > 100 µM (inactive); in the experiment with CCRF-CEM, 0.792 µM (active); in the experiment with EKVX it was > 100 µM (inactive); in the experiment with HCT-116, > 100 µM (inactive). In addition, the GI50 is > 100 µM (inactive) with HOP-92; > 100 µM (inactive) with HT-29; > 100 µM (inactive) in the experiment with MCF7; 84.7 µM (inactive) with MDA-MB-231; > 100 µM (inactive) with MDA-N; 87.1 µM (inactive) in the experiment on NCI-H522. Besides, the GI50 was > 100 µM (inactive) in the experiment on SF-268; > 100 µM (inactive) in the experiment on SF-295; > 100 µM (inactive) in the experiment on SK-OV-3; > 100 µM (inactive) in the experiment on SN12C; 97.9 µM (inactive) in the experiment on SR; > 100 µM (inactive) in the experiment on T47D.
As to `Cc1c(C)c2c(c(N)c1C#N)C(=O)N(NC(=S)Nc1ccccc1)C2=O`, the GI50 in the experiment with A549 was > 100 µM (inactive); with ACHN, 50 µM (inactive); in the experiment on CCRF-CEM it was 62.5 µM (inactive); in the experiment on EKVX, > 100 µM (inactive); in the experiment on HCT-116, 52.6 µM (inactive); in the experiment on HOP-92, > 100 µM (inactive). For the same compound, the GI50 is 60.1 µM (inactive) in the experiment on HT-29; > 100 µM (inactive) with MCF7; > 100 µM (inactive) with MDA-MB-231; > 100 µM (inactive) in the experiment on MDA-N; 52.7 µM (inactive) in the experiment with NCI-H522; 31.4 µM (inactive) in the experiment with SF-268. The GI50 in the experiment with SF-295 is 60.8 µM (inactive); in the experiment on SK-MEL-28 it was > 100 µM (inactive); in the experiment with SK-MEL-2 it was > 100 µM (inactive); in the experiment on SK-OV-3 it was > 100 µM (inactive); with SN12C, 69.7 µM (inactive); with SR, 22.4 µM (inactive). Further, the GI50 in the experiment on T47D was > 100 µM (inactive).
For `CCCCCCCCCCCCOCCCCCCCCC/C=C/c1ccc2c(c1)OCCOCCOCCOCCO2`, the GI50 in the experiment with A549 is 17.6 µM (inactive); in the experiment with ACHN, 19.1 µM (inactive); in the experiment with CCRF-CEM, 39.5 µM (inactive); with EKVX it was 26.6 µM (inactive); with HCT-116, 16 µM (inactive); in the experiment on HOP-92, 12.2 µM (inactive). Moreover, the GI50 with HT-29 is 20.7 µM (inactive); in the experiment on MCF7 it was 16.3 µM (inactive); with MDA-MB-231, 17.1 µM (inactive); in the experiment with MDA-N it was 18.5 µM (inactive); in the experiment with NCI-H522 it was 13.2 µM (inactive); with SF-268, 22.8 µM (inactive). For the same compound, the GI50 with SF-295 is 16.3 µM (inactive); in the experiment on SK-MEL-28, 30.7 µM (inactive); with SK-MEL-2, 15.8 µM (inactive); in the experiment with SK-OV-3, 17.5 µM (inactive); with SN12C, 23.6 µM (inactive); in the experiment on SR it was 21 µM (inactive). Also, in the experiment with T47D, the GI50 is 24.9 µM (inactive).
As to `Cc1ccc(/C=N/n2c(=O)[nH]c3ccccc3c2=O)cc1`, the GI50 with A498, with A549, in the experiment with ACHN, in the experiment with CCRF-CEM, with EKVX and in the experiment on HCT-116 was > 100 µM (inactive) each time. For the same compound, the GI50 with HOP-92, with HT-29, with MCF7, in the experiment on MDA-MB-231, in the experiment on MDA-N and in the experiment on SF-268 was > 100 µM (inactive) throughout. The GI50 with SF-295, with SK-MEL-28, in the experiment on SK-MEL-2, with SK-OV-3, in the experiment on SN12C and in the experiment on SR was > 100 µM (inactive) each time. Moreover, in the experiment with T47D, the GI50 was > 100 µM (inactive).
For `CCCC(=O)N1CCN(c2ccc3c(c2)OC(C)O3)CC1` (stereo not drawn), the GI50 in the experiment with A498, in the experiment on A549, with ACHN, with CCRF-CEM, in the experiment with EKVX and with HCT-116 was > 100 µM (inactive) in each case. In addition, the GI50 in the experiment with HOP-92, in the experiment on HT-29, in the experiment on MCF7, in the experiment with MDA-MB-231, in the experiment with MDA-N and in the experiment on NCI-H522 was > 100 µM (inactive) each time. For the same compound, the GI50 with SF-268, in the experiment on SF-295, with SK-MEL-28, in the experiment with SK-OV-3, in the experiment on SN12C and in the experiment on SR was > 100 µM (inactive) in each case. In addition, the GI50 in the experiment with T47D was > 100 µM (inactive).
For `Cc1cc2c(c(C(=O)NCCC(=O)O)c1)Oc1c(cc(C)cc1C(=O)NCCC(=O)O)S2`, the GI50 in the experiment with A549, in the experiment on ACHN, in the experiment with CCRF-CEM, in the experiment on EKVX, in the experiment with HCT-116 and in the experiment with HOP-92 was > 100 µM (inactive) each time. Also, the GI50 with HT-29, in the experiment on MCF7, in the experiment with MDA-MB-231, with MDA-N, with NCI-H522 and in the experiment with SF-268 was > 100 µM (inactive) in each case. The GI50 in the experiment on SF-295, in the experiment on SK-MEL-28, with SK-MEL-2, in the experiment on SK-OV-3, with SN12C and in the experiment on SR was > 100 µM (inactive) in each case. Moreover, the GI50 with T47D was > 100 µM (inactive).
